Publication PMC12703457, “Dynamic Anchoring of Peptides to the Extracellular Matrix Enabled by Boronic Acid” (Chembiochem, 2025)
Several values for one entry are separate records, joined by “and”; a condition that tells them apart may be missing. Equal entries are not always repeated. Where two headings read alike, the source gives them in different places. Bridge positions count the residues as written; N and C are the ends. Square brackets hold non-standard residues; d marks the D form. Peptide text beside a SMILES is read from it. * marks the point of attachment. Benzoyl(4-B(OH)2) = O=C(c1ccc(B(O)O)cc1)*; PEG6 = NCCOCCOCCOCCOCCOCCOCCC(=O)O

Legend:
fibronectin = experiment: SDS‐PAGE of fibronectin incubated with boronic acid dye; assay type: binding; settings: physiological pH; distinct fluorescence at 280 kDa
Protocol: Figure 1 A) Fluorescent microscopy of CDM. Green channel: Staining with 10 μM FL2 is shown. Red channel: Staining with a primary antibody (rabbit; Anti‐fibronectin) and secondary antibody (Anti‐Rabbit IgG, CFTM633) is shown. Third channel: Both channels are merged. The negative control was only stained with the antibodies. Every CDM with FL2 was washed several times with either pH 4.1, pH 7.4, or pH 9.4. B) SDS‐PAGE of fibronectin incubated with FL2 under different pH conditions. (1) FL2 incubation at pH 7.4. (2) FL2 incubation at pH 4.1. (3) Coomassie stain for fibronectin. M = molecular standard.
For quantification, fibronectin was immobilized on Enzyme‐Linked Immunosorbent Assay (ELISA) plates before incubation with FL2. Surfaces were similarly treated with acidic, neutral, and basic conditions, and the remaining fluorescence of FL2 was quantified with each washing step (Figure S1, Supporting Information).
SDS‐PAGE was performed as described.^[ [27] ^] For the separation of small molecular weight peptides, tricine‐gel‐electrophoresis (Novex 10–20% Tricine Gel, 1.0 mm × 12 well, Invitrogen by Thermo Fisher Scientific) was performed, using Mini Gel Tanks from Invitrogen under standardized conditions. […] The gel was destained with demineralized water or destaining buffer (10% 10x ws buffer, 20% methanol, 70% Mili‐Q water) and captured using a Gel‐Reader from BioRad.

[1] = Alizarin Red S (ARS) assay, association of boronic acid with ARS; assay type: binding; settings: for Association constant K eq with ARS: ARS assay, pH 7.4, 0.1 M phosphate buffer, fluorescence at 572 nm, average of triplicate runs
Protocol: Affinity toward different monosaccharides was tested quantitatively by an Alizarin Red S (ARS) competition assay. ARS spectroscopic properties change upon the formation of a boronic ester with a boronic acid, resulting in fluorescence.^[ [4] ^, [19] ^] […] The affinity of aryl boronic acid to 1,2‐diols is known to be dependent on modifications of the underlying benzene.

[2] = ARS competition assay with D‐glucamine; assay type: binding; settings: for Association constant K eq with D‐glucamine: ARS competition assay, pH 7.4, 0.1 M phosphate buffer, fluorescence at 572 nm, average of triplicate runs; for Interaction with D‐glucamine in ARS competition assay: fluorescence decay at 572 nm, rising D‐glucamine concentrations, pH 7.4, n = 3
Protocol: (§1) Affinity toward different monosaccharides was tested quantitatively by an Alizarin Red S (ARS) competition assay. ARS spectroscopic properties change upon the formation of a boronic ester with a boronic acid, resulting in fluorescence.^[ [4] ^, [19] ^] Additionally, the absorbance maximum of ARS shifts to shorter wavelengths upon ester formation, resulting in a color shift from red to orange, which facilitates the recognition of the formed bond (Figures S3 and S4, Supporting Information).
(§2) The assay was performed on a TECAN reader, Infinite M Plex, set up with 96‐well plates (Thermo Scientific, Nr. 137,103).

[3] = ARS competition assay with D‐(‐)‐fructose; assay type: binding; settings: for Association constant K eq with D‐(‐)‐fructose: ARS competition assay, pH 7.4, 0.1 M phosphate buffer, fluorescence at 572 nm, average of triplicate runs
Protocol: as §1, §2

[4] = ARS competition assay with D‐mannitol; assay type: binding; settings: for Association constant K eq with D‐mannitol: ARS competition assay, pH 7.4, 0.1 M phosphate buffer, fluorescence at 572 nm, average of triplicate runs
Protocol: as §1, §2

[5] = test system: cell‐derived decellularized extracellular matrices (CDMs) from NIH‐3T3 fibroblasts; experiment: Fluorescence imaging of CDMs with CPBA‐NQEQVSPL‐5/6‐carboxyrhodamine 110; assay type: binding, murine; settings: fluorescence microscopy
Protocol: The hydrophilic PEG6 linker within the peptide structure was crucial to ensure sufficient water solubility.
For visualization of fibronectin, the CDMs were first blocked using 1x Roti‐Block for 60 min at RT and washed once with PBS. A combination of Rabbit Anti‐Fibronectin antibody (F3648) (1:400 in PBS, overnight at 4 °C) and Anti‐rabbit IgG (H + L), F(ab’)2 Fragment (Alexa Fluor 647 Conjugate) 4414 (1:200 in PBS, 90 min at RT) was used. […] The dye was removed, and the matrix was washed several times with one of […] different buffers (carbonate/bicarbonate, pH 9.4; 1x PBS, pH 7.4; 1x PBS, pH 8.0, and sodium‐acetate, pH 4.1). Images were taken on an Axio Observer.Z1 microscope equipped with a 63x Plan‐Apochromat […]/1.40 Oil DIC M77 objective (Zeiss), 38 HE Green Fluorescent Reflector (λex = 450–490 nm λem = 500–550 nm), 50 Cy5 Reflector (λex = 625–655 nm λem = 665–715 nm) and a mercury vapor short‐arc lamp.
Figure S9: (A) Fluorescent microscopy of CDM. Green channel: Staining with CBPA-[…]-5/6-Carboxyrhodamine
110 is shown. Red channel: Staining with a primary antibody (rabbit; Anti-fibronectin) and secondary antibody (Anti-Rabbit
IgG, AF647) is shown. Third channel: Both channels are merged. The negative control was only stained with the antibodies.
Every CDM with the CPBA-Peptide was washed several times with either pH 4.1, pH 7.4, pH 8.0 or pH 9.4. […]

myostatin = target: T1, myostatin (Homo sapiens, UniProt O14793); experiment: Myostatin inhibition assay, SMAD luciferase reporter in HEK SBE cells; assay type: cell-based
T1 construct: purchased Bio-techne (Minneapolis)
T1 sequence (O14793 267-375): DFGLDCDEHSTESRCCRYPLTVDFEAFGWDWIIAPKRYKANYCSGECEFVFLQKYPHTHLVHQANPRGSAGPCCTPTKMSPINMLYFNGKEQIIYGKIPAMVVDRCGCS
Protocol: D) Myostatin inhibition by different MI peptides as determined via SMAD luciferase reporter with HEK SBE cells. 100 % activity corresponds to 4 nM myostatin. Data are shown as mean ± STDEV (n = 3).
The inhibition of all three MI peptides by myostatin was tested using a reporter gene luciferase assay in HEK293 cells, which monitored SMAD phosphorylation in response to varying myostatin concentrations, as described.^[ [24] ^]
HEK SBE cells (HEK‐293 cells stably transfected with a pGl3ti vector containing a Smad binding element at the promoter of the firefly luciferase gene and a hygromycin resistance gene) were used as previously described.^[ [24] ^] […] The total protein concentration of each sample was determined by the Bradford Protein concentration assay. […] The absorbance was measured with a plate reader (Infinite 200 PRO, Tecan). […] The injector of the plate reader was primed with luciferase assay reagent. The plate reader was programmed to automatically inject 100 μL of the reagent into each well and immediately measure the luminescence for 10 s. […] Relative light units per μg of total protein were calculated to analyze the inhibition of myostatin by all three MI peptides.

[6] = UV‐VIS spectra, shift of ARS absorbance maximum upon ester formation; assay type: binding; settings: UV‐VIS spectra in the presence of ARS
Description: As a positive control, we used 4‐(dihydroxyboryl)benzoic acid coupled to the hydrophilic polymer PEG of 2000 Da, with a similar molecular weight. […] We continued to examine the binding of CBPA‐PEG‐MI to ARS in the presence of D‐glucamine, D‐(‐)‐fructose and D‐mannitol as a competition assay as outlined above (Figure 4B, Figure S11, Supporting Information).
Figure S10: UV-VIS spectra of various peptides bound to ARS or glucamine. CPBA was used as a positive control, while ARS serves as a negative control. (A) UV-VIS-spectra of the peptide CPBA-MI in the presence of ARS- or glucamine. (B) UV-VIS-spectra of the peptide CPBA-PEG-MI in the presence of ARS- or glucamine. (C) UV-VIS-spectra of the peptide Acetyl-MI in the presence of ARS- or glucamine.
Figure S11: Fluorescence decay at 572 nm measured in an ARS competition assay with CPBA-PEG-MI and the negative control acetyl-MI in the presence of rising concentrations of fructose (A) and mannitol (B) as model saccharides at pH 7.4.
Data are shown as mean ± STDEV (n = 3). […]

[7] = cited from earlier work
Protocol: Binding constants of boronic acids and diols have been previously linked to their pKA and pH environment, with phenylboronic acid (pKA = 8.8) showing a binding optimum with ARS at a pH of 7 (1.1 mM^−1).^[ [20] ^]

[8] = fluorescence decay at 572 nm, rising sugar concentrations, pH 7.4, n = 3

For `O=C1c2ccccc2C(=O)c2c1cc(S(=O)(=O)O)c(O)c2O` [ARS, Alizarin Red S], the “Binding to fibronectin after gel electrophoresis” value (fibronectin) was “confirmed”.
With NQEQVSPL [CPBA‐peptide] the “Association constant K eq with ARS” value [1] was 2.35 ± 0.1 mM⁻¹, the “Association constant with ARS relative to unconjugated CPBA” value ([1]; pH 7.4, CPBA‐peptide versus CPBA) was 1.6 fold and the “Association constant K eq with D‐glucamine” value [2] was 3.87 ± 0.7 mM⁻¹. For the same compound, the “Association constant K eq with D‐(‐)‐fructose” value [3] was 0.29 ± 0.0 mM⁻¹ and the “Association constant K eq with D‐mannitol” value [4] was 0.22 ± 0.0 mM⁻¹.
With CPBA–NQEQVSPL–5/6‐carboxyrhodamine 110 the “pH‐dependent binding to glycan structures of the ECM compared with FL2” value ([5]; 100 μM, three hours at pH 9.4, washed at pH 4.1, 7.4, 8.0 or 9.4) was “comparable pH‐dependent binding behavior” and the “Binding to CDM at pH 7.4 compared with FL2” value ([5]; pH 7.4 wash) was “quantitatively weaker”.
In the case of `CSCC[C@@H]1NC(=O)[C@H](Cc2c[nH]c3ccccc23)NC(=O)[C@@H]2CCCN2C(=O)[C@H](Cc2c[nH]c3ccccc23)NC(=O)[C@H](CCCNC(=N)N)NC(=O)[C@H]([C@@H](C)O)NC(=O)[C@@H](NC(=O)[C@H](CCC(N)=O)NC(=O)CNC(=O)[C@H](CCC(N)=O)NC(=O)[C@@H](NC(=O)[C@H](C)NC(=O)[C@@H](NC(=O)CCOCCOCCOCCOCCOCCOCCNC(=O)c2ccc(B(O)O)cc2)C(C)C)[C@@H](C)O)CSSC[C@@H](C(=O)N2CCC[C@H]2C(=O)N2CCC[C@H]2C(=O)N[C@@H](CCC(N)=O)C(=O)NCC(=O)N[C@@H](Cc2c[nH]c3ccccc23)C(=O)NCC(=O)NCCOCCOCCOCCOCCOCCOCCC(N)=O)NC1=O` [CPBA‐PEG‐MI] ({Benzoyl(4-B(OH)2)-PEG6}-VATQGQCTRWPWMCPPQGWG[PEG6]-NH2; disulfide 7-14), the “Interaction with D‐glucamine in ARS competition assay” value [2] is reported as “strongest interaction”, the “Displacement of ARS from the peptide complex by D‐(‐)‐fructose” value [3, 8] is reported as “not able to displace ARS” and the “Displacement of ARS from the peptide complex by D‐mannitol” value [4, 8] is reported as “not able to displace ARS”. The IC50 (myostatin) was 1500 nM and the “Shift of the absorbance maximum of ARS upon ester formation” value [6] was “shift of the absorbance maximum of ARS to shorter wavelengths”.
With `CSCC[C@@H]1NC(=O)[C@H](Cc2c[nH]c3ccccc23)NC(=O)[C@@H]2CCCN2C(=O)[C@H](Cc2c[nH]c3ccccc23)NC(=O)[C@H](CCCNC(=N)N)NC(=O)[C@H]([C@@H](C)O)NC(=O)[C@@H](NC(=O)[C@H](CCC(N)=O)NC(=O)CNC(=O)[C@H](CCC(N)=O)NC(=O)[C@@H](NC(=O)[C@H](C)NC(=O)[C@@H](NC(C)=O)C(C)C)[C@@H](C)O)CSSC[C@@H](C(=O)N2CCC[C@H]2C(=O)N2CCC[C@H]2C(=O)N[C@@H](CCC(N)=O)C(=O)NCC(=O)N[C@@H](Cc2c[nH]c3ccccc23)C(=O)NCC(=O)NCCOCCOCCOCCOCCOCCOCCC(N)=O)NC1=O` [Acetyl‐MI] (Ac-VATQGQCTRWPWMCPPQGWG[PEG6]-NH2; disulfide 7-14) the “Interaction with D‐glucamine in ARS competition assay” value [2] was “nonbinding” and the IC50 (myostatin; HEK SBE luciferase reporter cells, 4 nM myostatin, 48 h, 37 °C, n = 3, read-out: IC50, inhibition of myostatin‐induced SMAD phosphorylation) was 1700 nM.
In the case of `OB(O)c1ccccc1` [phenylboronic acid], the pKA [7] is given as 8.8 and the “Binding constant with ARS at binding optimum” value ([7]; pH of 7) is given as 1.1 mM⁻¹.
With `O=C(O)c1ccc(B(O)O)cc1` [CPBA, 4‐Carboxy‐phenyl‐boronic acid, reference compound] the “Association constant K eq with ARS” value [1] was 1.46 ± 0.3 mM⁻¹, the “Association constant K eq with D‐glucamine” value [2] was 2.09 mM⁻¹ and 2.09 ± 0.6 mM⁻¹ and the “Association constant K eq with D‐(‐)‐fructose” value [3] was 0.11 ± 0.0 mM⁻¹. The “Association constant K eq with D‐mannitol” value [4] was 0.08 ± 0.0 mM⁻¹.
